Data: patent EP2408450B1, “ALPHA-(N-SULFONAMIDO)ACETAMIDE COMPOUND AS AN INHIBITOR OF BETA AMYLOID PEPTIDE PRODUCTION” (Bristol-Myers Squibb Company, priority 2009, dated 2010)

Experiments:
Aβ40 = assay: Inhibition of Aβ40 formation in cultured H4 APP751 SWE cells; type: cell-based; settings: H4-8Sw cells, mean ± SD, n = 50
Protocol: Cells were maintained in log phase through twice weekly passage at a 1:20 dilution. […] Following incubation for 19 hours in 5% CO2 at 37°C, plates were briefly centrifuged (1000 rpm, 5 min). […] Antibody cocktails were freshly prepared by dilution into 40 mM Tris-HCl (pH 7.4) with 0.2% BSA and added to assay plates. […] Assay plates containing antibodies were sealed with aluminum foil and incubated overnight at 4°C. Signal was determined using a Viewlux counter (Perkin Elmer) and IC50 values determined using curve fitting in CurveMaster (Excel Fit based).

CYP3A4 mRNA = assay: Induction of CYP3A4 mRNA in Fa2N-4 cells; settings: Fa2N-4 hepatocytes, 3 days
Protocol: [[2-fluoro-4-(1,2,4-oxadiazol-3-yl)phenyl]methyl]amino]-5,5,5-trifluoropentanamide to induce CYP3A4 mRNA was evaluated in vitro using the Fa2N-4 cell line. The Fa2N-4 cell is an immortalized human hepatocyte line that was created using the Simian virus 40 (SV40) T antigen as the immortalizing gene, while retaining basal expression and inducibility of several CYP isoforms, including CYP3A4. Fa2N-4 cells and MFE Support Media F were provided by XenoTech, LLC (Lenexa, Kansas).
Upon the receipt of the cells, the media were changed and the cells maintained overnight in a humidified, CO2-supplied incubator. After this adaptation period, the cells were examined under a light microscope and a determination was made as to whether the cells were morphologically normal and suitable for use. During the treatment period, the cells were visually inspected on a daily basis; cellular morphology, confluency, and signs of toxicity due to the test article were documented as necessary. […] Rifampicin (10 µM), a prototypical CYP3A4 inducer, was used as the positive control. Fa2N-4 cells were exposed to the test articles for a total of 3 days. The culture medium was replaced daily with fresh medium containing the test articles. After a total of ~72 hours of exposure, medium was aspirated and the cells washed once with warm phosphate buffered saline solution before adding the cell lysis buffer (Qiagen, Valencia, CA).

[1] = target: T1, human pregnane-X receptor (Homo sapiens, UniProt O75469); assay: PXR transactivation assay (CYP3A-Luc reporter in HepG2 cells); type: cell-based; settings: hPXR transactivation assay
T1 construct: expressed in transfected cells; host or cells: HepG2 cells, transiently transfected with PXR-pcDNA3 and CYP3A-Luc
T1 sequence (O75469 1-434): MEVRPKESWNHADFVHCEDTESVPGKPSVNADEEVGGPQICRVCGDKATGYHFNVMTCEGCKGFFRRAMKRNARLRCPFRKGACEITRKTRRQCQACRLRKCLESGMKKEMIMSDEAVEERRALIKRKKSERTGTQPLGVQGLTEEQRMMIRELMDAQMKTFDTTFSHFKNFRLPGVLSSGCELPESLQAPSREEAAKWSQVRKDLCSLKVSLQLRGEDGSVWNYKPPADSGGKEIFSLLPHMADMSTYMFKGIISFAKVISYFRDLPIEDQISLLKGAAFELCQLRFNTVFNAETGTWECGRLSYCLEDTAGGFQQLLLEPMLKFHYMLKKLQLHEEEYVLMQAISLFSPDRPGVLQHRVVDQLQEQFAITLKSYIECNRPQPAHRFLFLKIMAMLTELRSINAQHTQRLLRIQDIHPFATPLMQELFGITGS
From the text: Pregnane X receptor (PXR) is a nuclear hormone receptor principally responsible for the induction of cytochrome P450 (CYP) 3A4, which plays a major role in metabolizing many clinically prescribed drugs. It is well known that the induction of CYP3A4 can cause either drug-drug interaction by increasing the metabolic clearance of co-administered CYP3A4 substrates (Bertilsson, G. et al., Proc. Nat. Acad. Sci. USA, 95:12208-12213 (1998); Lehmann, J.M. et al., J. Clin. Invest., 102:1016-1023 (1998)) or can cause loss of drug exposure due to autoinduction. Characterizing the induction potential of discovery or development drug candidates has become an important screen throughout the pharmaceutical industry. […]
Cells in each flask are washed with PBS and 4 mL of Trypsin-EDTA (0.25%) is added and incubated for one minute at room temperature. […] Cells are then counted and diluted in media to 3.0 x 10^5 cells/mL. […] After fifteen minutes, plates are read on a Viewlux (Perkin-Elmer) plate reader.
Rifampicin (10 µM), a well known agonist of PXR, is included in each plate as an internal standard and positive control. The data was then expressed as percent activation (%Act), where the total signal is the signal from the 10 µM rifampicin and the blank signal is that from the DMSO vehicle. %Act = (Compound signal-Blank signal)/(Toal signal-Blank signal) × 100% [formula] […]

plasma Aβ40 = assay: Rat plasma Aβ40 assay (4G8-TSD ELISA); settings: for plasma Aβ40, % of baseline Aβ40 values: 2 to 24 hours post dosing

## NC(=O)[C@@H](CCC(F)(F)F)N(Cc1ccc(-c2ncon2)cc1F)S(=O)(=O)c1ccc(Cl)cc1 [(2R)-2-[[(4-chlorophenyl)sulfonyl][[2-fluoro-4-(1,2,4-oxadiazol-3-yl)phenyl]methyl]amino]-5,5,5-trifluoropentanamide]
Aβ40
  IC50: 0.3 ± 0.15 nM
CYP3A4 mRNA; highest concentration tested (20 µM)
  increase in CYP3A4 mRNA expression over the vehicle control: 2.6 fold
CYP3A4 mRNA; lower concentrations (≤ 8.0 µM)
  induction of CYP3A4: ≤ 2.0 fold
[1]
  EC20A (20% of the Rifampicin response at 10 µM): 6900 nM
  EC60A (60% of the Rifampicin response at 10 µM): greater than 16.7 µM
Plasma Aβ40; Rattus norvegicus, read-out: ED50 for reduction of plasma Aβ40
  ED50: 1 to 10 mg/kg
Plasma Aβ40; rat, single dose 1 mg/kg, by 8 hours
  plasma Aβ40, % of starting values: 250%
Plasma Aβ40; rat, single dose 1 mg/kg, by 24 hours
  plasma Aβ40: returning to baseline values
Plasma Aβ40; rat, single dose 10 mg/kg
  plasma Aβ40, % of baseline Aβ40 values: less than 25%
Plasma Aβ40; rat, single dose 30 mg/kg
  plasma Aβ40, % of vehicle control: 2%
Plasma Aβ40; rat, single dose 100 mg/kg
  plasma Aβ40, % of baseline Aβ40 values: less than 25%
